Read-outs that look alike come from different tables or passages of the source.
Legend:
[1] = CCK-8 cell viability assay, normal cell line; type: cell-based; conditions: human, BEAS-2B cells (normal cell line), BEAS-2B normal cell line, read-out: Cell viability (100%), 40 μM, 48 h, BEAS-2B
Experimental: (§1) In order to investigate the anticancer activity of new synthetic 1,4-benzoxazinone-linked 1,2,3-triazole compounds, we chose several cancer cell lines, including A549 (lung), Huh7 (liver), MCF-7 (breast), HCT-116 (colon), and SKOV3 (ovary), and measured cell viability using the CCK-8 assay. Cells were exposed to 40 μM of the compounds for 48 h, and then cell viability was determined. […] In addition, we used the reference drug gefitinib as a positive control and measured its cell viability on different cell lines. […] We used BEAS-2B cells as a normal cell line to determine the toxic effects of these compounds on normal cells. […] Furthermore, we evaluated the IC50 of these compounds in A549.
(§2) Cells were cultured in DMEM or RPMI 1640 medium containing 10% FBS and 1% penicillin/streptomycin at 37°C and 5% CO2. The CCK-8 assay was performed on several human cancer cell lines, including A549, Huh7, MCF-7, HCT-116, and SKOV3, according to the manufacturer’s instructions. Cells were plated at a density of 5 × 10^3 cells per well in a 96-well plate. After 24 h of incubation, cells were treated with 40 μM compounds for 48 h. Cell viability was assessed by adding 10 μL of CCK-8 reagent, dissolved in the cell culture medium, and incubating for 1 h. Absorbance was measured at 450 nm using a microplate reader. IC50 values were determined using a dose-response curve with six concentrations (0, 10, 20, 40, 80, and 160 μM), and IC50 values were calculated using GraphPad Prism software.

BEAS-2B cells = test: Calcein AM/PI live/dead viability assay, normal lung cells; type: cell-based; conditions: BEAS-2B, 5, 10, 20 μM, 24 h
Experimental: (§3) To investigate the role of 14b and 14c in regulating cell proliferation and death, A549 cells were treated with different concentrations of compounds for 24 h, and the live/dead cell numbers were then observed by staining with calcein AM and propidium iodide.
(§4) FIGURE 4 Compound 14b and 14c increased dead cells and decreased live cells. (A–B) A549 cells were treated with different concentrations of 14b and 14c (5 μM, 10 μM, and 20 μM) for 24 h (C–D) BEAS-2B cells were treated with different concentrations of 14b and 14c (5 μM, 10 μM, and 20 μM) for 24 h. Live and dead cell numbers were stained with calcein in AM and PI, respectively, and cells were observed by confocal microscopy. Data are presented as mean ± SEM, *P < 0.05.
(§5) The live/dead viability assay was performed using the Calcein/PI Live/Dead Viability Assay Kit. A549 cells were plated at a density of 5 × 10^3 cells per well in a 96-well plate and allowed to adhere overnight. Compounds were then added at concentrations of 0, 5, 10, or 20 μM for 24 h. After replacing the medium with fresh culture medium containing Calcein AM and propidium iodide, the cells were incubated for 30 min at 37°C in the dark. Live and dead cells were observed and photographed using a confocal microscope.

A549 cells [2] = test: Cellular ROS level measurement (DCFH-DA); type: cell-based, human; conditions: A549, 5, 10 or 20 μM, 24 h
Description: Intracellular reactive oxygen species (ROS) generation will result in mitochondrial membrane damage and further induce cell apoptosis and cell death. To determine whether compounds 14b and 14c could induce ROS generation, we treated A549 cells with different doses of these two compounds and measured the intracellular ROS levels using the DCFH-DA peroxide-sensitive fluorescent dye. When DCFH-DA entered the cells, it would hydrolyze into DCFH by esterase and then convert to non-diffusible green fluorescent DCF by oxidation.
FIGURE 6 Compounds 14b and 14c increased ROS levels. A549 cells were treated with different concentrations of 14b (A) and 14c (B) (5 μM, 10 μM, or 20 μM) for 24 h. ROS levels were stained using DCFH-DA, observed by confocal microscopy, and analyzed by ImageJ. Data are presented as mean ± SEM, *P < 0.05.
A549 cells were seeded at a density of 5 × 10^3 cells per well in a 96-well plate and allowed to adhere overnight. Compounds were then added at concentrations of 0, 5, 10, and 20 μM for 24 h. After treatment, the medium was removed, and fresh medium without FBS but containing 10 μM DCFH-DA was added and incubated in the dark for 30 min. The cells were washed three times with FBS-free medium to remove excess probe. ROS levels were then measured and imaged using confocal microscopy.

A549 = test: CCK-8 cell viability assay and IC50 measurement; type: cell-based, human; conditions: Homo sapiens; for viability at 40 µM / inhibition at 40 µM: A549, 40 μM, 48 h; for viability at 40 µM: CCK-8, read-out: Cell viability (100%), 40 μM, 48 h, A549; for inhibition at 40 µM: read-out: inhibition rate
Experimental: as §1
Human cancer cell lines A549, Huh7, MCF-7, HCT-116, and SKOV3 were obtained from ATCC. The cells were cultured in DMEM or RPMI 1640 medium supplemented with 10% FBS and 1% penicillin/streptomycin and incubated at 37°C in a CO2-humidified atmosphere.
as §2

A549 cells [3] = test: DNA damage staining (γ-H2AX antibody and DAPI); type: cell-based, human; conditions: A549, 5, 10, and 20 μM, 24 h
Experimental: In order to further verify the effects of 2H-1,4-benzoxazin-3(4H)-one linked 1,2,3-triazole derivatives on DNA damage, A549 cells were treated with different doses (5, 10, and 20 μM) of compounds 14b and 14c. After 24-h treatment, cells were stained with γ-H2AX antibody and DAPI, cell nuclei were stained blue, and DNA-damaged cells were stained green. Using confocal microscopy, cells were observed and photographed.
A549 cells were seeded at a density of 2 × 10^3 cells per well in 96-well plates. Cells were treated with different concentrations (0, 5, 10, 20, and 30 μM) of the compounds for 24 h. DNA damage was assessed using a DNA damage detection kit. The cell nuclei were stained blue, while DNA-damaged cells were stained green. Cells were then observed and photographed using a fluorescence microscope.

A549 cells [4] = test: Calcein AM/PI live/dead viability assay; type: cell-based, human; conditions: 24 h
Experimental: as §3, §4, §5

[5] = A549, 48 h, read-out: IC50 48 h
[6] = A549, 72 h, read-out: IC50 72 h

SMILES | viability at 48 h, 40 µM [1] | cytotoxicity in normal lung cells (BEAS-2B cells) | ROS generation (A549 cells [2]) | IC50 (A549; [5]) | IC50 (A549; [6]) | viability at 40 µM (A549) | inhibition at 40 µM (A549) | DNA damage (γ-H2AX staining) (A549 cells [3]) | Dead cells (A549 cells [4]; A549, 5 μM) | Dead cells (A549 cells [4]; A549, 10 μM and 20 μM) | Live cells (A549 cells [4]; A549, different concentrations (5, 10, 20 μM)) | live/dead cell numbers compared with compound 14b (A549 cells [4]; A549, 5, 10, 20 μM)
O=C1COc2ccc(NC(=O)c3cccc(-c4cn(-c5cccc(Br)c5)nn4)c3)cc2N1 [Compound 14b] | 93.2 ± 0.61% | minimal cytotoxicity | increased ROS generation | 25.1 ± 4.62 µM | 7.59 ± 0.31 µM | 27 ± 0.98% | > 50% | significantly led to DNA damage in a concentration-dependent manner | increased | greatly and largely increased | consistently decreased | –
O=C1COc2ccc(NC(=O)c3cccc(-c4cn(-c5ccccc5F)nn4)c3)cc2N1 [Compound 14c] | 105 ± 2.38% | minimal cytotoxicity | increased ROS generation | 24.1 ± 3.83 µM | 18.5 ± 0.59 µM | 22.6 ± 0.88% | > 50% | significantly led to DNA damage in a concentration-dependent manner | – | – | – | The same results were also observed

Reference: PMC12202533, “Mechanistic Insights and Anti-cancer Activity of 2H-benzo[b][1,4]oxazin-3(4H)-one Linked 1,2,3-Triazoles in Human Cancer Cells” (Frontiers in Pharmacology, 2025)
